Assay [1] has as its system LoVo colorectal xenograft. The assay can be described thus: LoVo xenograft efficacy model. Format: in vivo, mice. Conditions: 5 mg/kg BID, 22 days of dosing. How it is done: The LoVo xenograft model was performed in compliance with all the laws, regulations and guidelines of the National Institutes of Health (NIH) and with the approval of the Animal Care and Use Committee of Crown Bioscience (Taicang, China), an AAALAC accredited facility. Food and water were provided ad libitum. […] Female Balb/c nude mice (5-9 weeks old) were inoculated subcutaneously just below the right high axilla with ten million cells in Dulbecco's Phosphate Buffered Saline, using a 27-gauge needle and syringe. When tumor burdens reached 100 mm 3 on average on day 6, mice were randomly assigned into groups such that the mean tumor burden for all groups was within 10% of the overall mean tumor burden for the study population. Groups were treated on days 6-27 as follows: vehicle control (dosed orally) (n=9); Compound 2 dosed orally at 5 mg/kg BID (n=9); Compound 2 dosed orally at 1 mg/kg BID. Tumor volume and body weights were measured three time per week. Tumor burden (mg) was estimated from caliper measurements by the formula: tumor burden (mg=mm 3)=(length×width 2)/2.

Assay [2] relates to RPMI8226 Multiple Myeloma cells. The assay can be described thus: Cell proliferation, combination with standard of care, RPMI8226. Format: cell-based. Conditions: Homo sapiens, RPMI-8226; with 333 nM dexamethasone, 96 h, FIG. 6A; read-out: inhibition of cell proliferation IC50, combination treatment. Here is the method:
(§1) H929, RPMI8226, GA-10 and DoHH-2 cells (catalog #CRL-9068) were obtained from the American Type Culture Collection (ATTC, Manassas, VA). H929 Cells were maintained in RPMI-1640 medium supplemented with 20% heat-inactivated fetal bovine serum (catalog #A3840002, ThermoFisher Scientific, Waltham, MA), 1% Penicillin/Streptomycin/L-Glutamine (catalog #10378016, ThermoFisher Scientific, Waltham, MA), and 0.05 mM 2-mercaptoethanol (catalog #21985-023, ThermoFisher Scientific, Waltham, MA). […]
(§2) For cell proliferation assay appropriate number of cells (Forty thousand cells for H929. Twenty thousand cells for RPMI8226 and GA-10. Eight thousand cells for DoHH-2) were seeded per well in 200 μL in respective medium were dispensed into a 96-well black clear bottom plate. […] Plates were read on a Synergy2 or equivalent reader (Biotek, Winooski VT) using an excitation of 540 nm and an emission of 600 nm. At the end of the incubation of DoHH-2, cell viability was determined using CellTiter-Glo® assay (Promega, Madison, WI). Luminescence was measured using EnVision MultiLabel Reader (PerkinElmer, Waltham, MA). Data was analyzed using GraphPad Prism software (GraphPad, San Diego, CA) to calculate IC50 values.

Assay [3] has as its target PERK enzyme (Homo sapiens (Human), UniProt Q9NZJ5). Briefly: Biochemical assay for PERK (coupled pyruvate kinase/lactate dehydrogenase). To be noted: 1 mM ATP. Here is the method: Activity of PERK kinase was determined spectroscopically using a coupled pyruvate kinase/lactate dehydrogenase assay that continuously monitors the ATP hydrolysis-dependent oxidation of NADH (e.g., Schindler et al. Science (2000) 289: 1938-1942). Assays were conducted in 384-well plates ([…] final volume) using 10 nM PERK (from Beryllium), 0.25 mg/mL Myelin Basic Protein substrate, 1.5 units pyruvate kinase, 2.1 units lactate dehydrogenase, 1 mM phosphoenol pyruvate, 0.28 mM NADH and 1 mM ATP in assay buffer (100 mM Tris, pH 7.5, 15 mM MgCl2, 0.5 mM DTT, 0.004% (w/v) BSA, and 0.004% Triton X-100). Inhibition of PERK was measured by adding serial diluted test compound (final assay concentration of 1% DMSO). A decrease in absorption at 340 nm was monitored continuously for 6 hours at 30° C. on a multi-mode microplate reader (BioTek). The reaction rate was calculated using the 2-3 h time frame. The reaction rate at each concentration of compound was converted to percent inhibition using controls (i.e., reaction with no test compound and reaction with a known inhibitor) and IC50 values were calculated using software routines in Prism (GraphPad software).

Assay [4] deals with Follicular lymphoma cells. Briefly: Cell proliferation, combination with standard of care, follicular lymphoma. Format: cell-based. To be noted: with 41 nM ibrutinib, 96 h, FIG. 6D; read-out: inhibition of cell proliferation IC50, combination treatment. Here is the method: as §1, §2
The test system of assay [5] is CCRF-CEM leukemia cells. Briefly: CCRF-CEM ASNase cell proliferation assay. To be noted: Homo sapiens, 1 mU/mL ASNase, 72 h. In kind it is cell-based. Here is the method: CCRF-CEM leukemia cells (catalog #CCL-116) were obtained from the American Type Culture Collect (ATTC, Manassas, VA). Cells were grown in RPMI-1640 medium supplemented with 10% heat-inactivated fetal bovine serum (Invitrogen, Carlsbad, CA) and 1% Penicillin/Streptomycin/L-Glutamine at 37° C., 5% CO2, and 95% humidity. Cells were expanded until reaching one million cells per mL at which time they are subcultured or harvested for assay use. Ten thousand cells per well in 200 μL RPMI-1640 supplemented with 10% heat-inactivated fetal bovine serum and 1% Penicillin/Streptomycin were dispensed into a 96-well black clear bottom plate. A serial dilution of test compound and 1 mU/mL ASNase was added in triplicate and plates were incubated for 72 h at 37° C., 5% CO2, and 95% humidity. At the end of the incubation, 40 μL of a […] solution of resazurin (Sigma, St. Louis, MO) in PBS was added to each well of the plate and plates were incubated for an additional 6 h at 37° C., 5% CO2, and 95% humidity. Plates were read on a Synergy2 or equivalent reader (Biotek, Winooski VT) using an excitation of 540 nm and an emission of 600 nm. Data was analyzed using GraphPad Prism software (GraphPad, San Diego, CA) to calculate IC50 values.

These results are taken from patent publication US20230382915A1, “GCN2 AND PERK KINASE INHIBITORS AND METHODS OF USE THEREOF” (Deciphera Pharmaceuticals, LLC, priority 2021, published 2023).

PERK enzyme, sequence (Q9NZJ5 other isoform, or with tags, fused parts or gaps): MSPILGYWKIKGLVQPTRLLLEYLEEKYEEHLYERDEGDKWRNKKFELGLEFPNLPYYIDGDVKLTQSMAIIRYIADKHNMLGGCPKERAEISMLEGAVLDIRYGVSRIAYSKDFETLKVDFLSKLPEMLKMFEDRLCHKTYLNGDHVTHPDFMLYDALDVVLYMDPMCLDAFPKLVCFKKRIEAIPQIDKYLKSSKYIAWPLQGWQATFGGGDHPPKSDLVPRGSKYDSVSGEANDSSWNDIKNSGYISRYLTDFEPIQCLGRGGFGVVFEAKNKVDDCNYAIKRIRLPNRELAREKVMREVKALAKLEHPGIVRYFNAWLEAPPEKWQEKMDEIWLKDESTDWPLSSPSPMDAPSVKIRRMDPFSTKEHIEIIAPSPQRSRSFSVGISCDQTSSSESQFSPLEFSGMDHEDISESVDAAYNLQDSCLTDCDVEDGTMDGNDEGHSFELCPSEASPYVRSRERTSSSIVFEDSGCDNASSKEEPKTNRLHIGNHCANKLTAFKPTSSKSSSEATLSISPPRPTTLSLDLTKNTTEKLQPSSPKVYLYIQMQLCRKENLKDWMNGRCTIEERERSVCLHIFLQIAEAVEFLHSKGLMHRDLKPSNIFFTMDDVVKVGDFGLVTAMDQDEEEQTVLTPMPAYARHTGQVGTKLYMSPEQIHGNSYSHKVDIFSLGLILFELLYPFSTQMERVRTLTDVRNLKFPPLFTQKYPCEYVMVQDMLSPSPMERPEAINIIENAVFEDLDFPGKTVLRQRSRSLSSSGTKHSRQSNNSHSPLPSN

`Cn1cc(-c2cccc(NS(=O)(=O)c3cc(Cl)cc(CO)c3Cl)c2F)c2c(N)ncnc21` [Example 2, N-(3-(4-amino-7-methyl-7H-pyrrolo[2,3-d]pyrimidin-5-yl)-2-fluorophenyl)-2,5-dichloro-3-(hydroxymethyl)benzenesulfonamide]: the “mean tumor growth inhibition” value in assay [1] came to 69%. Further, the IC50 in assay [2] was 7 nM; in assay [3], at most 100 nM; in assay [4], 4 nM; in assay [5], at most 100 nM.
